Reference: patent US9700522B2, “Transdermal patch and method for delivery of vitamin B12” (Vita Sciences LLC, priority 2007, dated 2017)

How the values were obtained:
skin [1] = experiment: skin irritation on wear of patch with nicotinate enhancer; assay type: in vivo; conditions: benzylnicotinate substituted for methylnicotinate in the patch enhancer system
From the text: (§1) Permeation enhancers identified as useful for this product included nicotinates (methyl and benzyl), fatty acids (oleic acid, undecanioic acid, lauric acid), fatty alcohols (octanol and nonanol), terpenes (menthol, limonene, and menthone), and polyols (polyethylene glycol, propylene glycol, and glycerol). In an early trial, a binary enhancer system of methylnicotinate and propylene glycol was used but the inventor observed that the methylnicotinate crystallized after about 3-4 months in the patch.

[2] = early trial of patch with binary enhancer system: crystallization of enhancer in the patch on storage; assay type: physicochemical; conditions: binary enhancer system of methylnicotinate and propylene glycol in vitamin B12 patch
From the text: as §1

skin [3] = experiment: permeation enhancement of vitamin B12 from the patch; conditions: in conjunction with propylene glycol
From the text: as §1

Question: Which skin irritation (skin [1]) does the source give for `O=C(OCc1ccccc1)c1cccnc1` [benzylnicotinate] here?
Answer: severe and unacceptable skin irritation

Question: With `COC(=O)c1cccnc1` [methylnicotinate] as the molecule, how does the “time after which the enhancer crystallized in the patch” value [2] read?
Answer: 3-4 months

Question: Which permeation enhancer performance (skin [3]) does the source give for `CC(C)[C@@H]1CC[C@@H](C)CC1=O` [menthone] here?
Answer: excellent permeation enhancer
